Our source for the IC50 values is BindingDB's records for doi:10.1021/jm030233b (Pharmacia, 2003).

By IC50 is commonly meant the concentration needed to halve the response being measured. Lower therefore signals greater potency in that assay.

The structures appear in SMILES notation.

For this test, the target named is Prothrombin (Homo sapiens, UniProt P00734). Description: Thrombin Assay. Conditions: pH 8; 22 °C.

Experimental: Human thrombin and substrate were added to a 96-well assay plate containing inhibitor in reaction buffer. […] All compounds were assayed in duplicate at seven concentrations. Percent inhibition at each concentration was calculated from OD405nm value from the experimental and control sample. IC50 values were calculated from a four-parameter logistic regression equation.

Turning to `N=C(N)c1ccc(CNC(=O)Cc2c(-c3cccc(N)c3)ccc(NCc3ccccc3)c2F)cc1` [2-[6-(3-aminophenyl)-3-(benzylamino)-2-fluorophenyl]-N-[(4-carbamimidoylphenyl)methyl]acetamide], half-maximal inhibition (IC50) required 10 µM.
The value for `N=C(N)c1ccc(CNC(=O)Cc2c(F)ccc(NS(=O)(=O)Cc3ccccc3)c2F)cc1` [N-[(4-carbamimidoylphenyl)methyl]-2-[2,6-difluoro-3-(phenylmethanesulfonamido)phenyl]acetamide] was 26.9 µM; that for `N=C(N)c1ccc(CNC(=O)Cc2c(-c3ccccc3)ccc(NCCc3ccccc3)c2O)cc1` [N-[(4-carbamimidoylphenyl)methyl]-2-{2-hydroxy-6-phenyl-3-[(2-phenylethyl)amino]phenyl}acetamide] was 6.8 µM; that for `N=C(N)c1ccc(CNC(=O)Cc2c(F)ccc(NCCc3ccccc3)c2F)cc1` [N-[(4-carbamimidoylphenyl)methyl]-2-{2,6-difluoro-3-[(2-phenylethyl)amino]phenyl}acetamide] was 1.56 µM.
Under `CC(C)=Nc1cc(O)c(-c2ccccc2)c(CC(=O)NCc2ccc(C(=N)N)cc2)c1O` [N-[(4-carbamimidoylphenyl)methyl]-2-[3,6-dioxo-2-phenyl-5-(propan-2-ylamino)cyclohexa-1,4-dien-1-yl]acetamide] stands above 30 µM.
